Results: patent publication US12653865B2, “Dual-agonist compound for both GLP-1 and GIP receptors and application thereof” (Jiangsu Hengrui Pharmaceuticals Co., Ltd., priority 2020, dated 2026)
*1 amine or outer side, *2 acyl side, *3 side chain or, on linkers, in order; H or OH if unused. Where a SMILES comes first, the peptide text is derived from it. Side-chain parts run from the residue outwards. [ ]: non-standard residue; d: D form. The star is where a group is joined. C20 diacid = O=C(O)CCCCCCCCCCCCCCCCCCC(=O)*; γGlu = O=C(O)[C@H](CCC(=O)[*:2])N[*:1]; AEEA = NCCOCCOCC(=O)O; Aib = CC(C)(N)C(=O)O

What was measured:
diet-induced obese mice = experiment: Body weight and fat mass in diet-induced obese mice; type: in vivo, C57BL/6 mice; conditions: for rate of change in body weight / viscera/brain ratio for fat mass, Epididymal fat / viscera/brain ratio for fat mass, Inguinal fat / viscera/brain ratio for fat mass, Mesenteric fat / viscera/brain ratio for fat mass, Perirenal fat / viscera/brain ratio for fat mass, Scapular fat / viscera/brain ratio for fat mass, Subcutaneous fat: DIO mice; for viscera/brain ratio for fat mass, Epididymal fat / viscera/brain ratio for fat mass, Inguinal fat / viscera/brain ratio for fat mass, Mesenteric fat / viscera/brain ratio for fat mass, Perirenal fat / viscera/brain ratio for fat mass, Scapular fat / viscera/brain ratio for fat mass, Subcutaneous fat: end of study
Experimental: (§1) High-fat food-induced obese male C57BL/6 mice (weighing 35-55 g, aged 10-12 weeks, purchased from Shanghai Jiesijie Laboratory Animal Co., Ltd.) were tested. […] According to the experimental design, the body weight of each mouse was measured and recorded on day 0, day 3, day 6 and so on to day 27, the average body weight of each group of mice was calculated, and weight change curves were plotted by taking the body weight on the first day as the standard. At the end, the fat and other visceral organs of each part of the mice were taken out and weighed, and the viscera/brain ratio for fat in each part of each mouse was calculated. The effect of the drug on the fat was determined by comparing the change in the organ/brain ratio for fat of different parts of each group of mice.

DIO mice = experiment: Food intake ration of diet-induced obese mice; type: in vivo, C57BL/6 mice
Experimental: as §1
The food intake ration of mice in each group was measured daily during the test.

db/db mice = experiment: Glucose metabolism level in db/db mice; type: in vivo, C57BL/KsJ-db/db mice
Experimental: Each administration group contained 10 db/db mice. According to the experimental design, tail vein blood was collected by needle pricking on days 0, 7, 14, 21 and 28 and determined for fasting blood glucose levels with a glucometer and glucose dipsticks, and the mice were fasted 6 h prior to the blood collection at each time point. Tail vein blood was collected by needle pricking on days 3, 10, 17, 24 and 27 and randomly determined for blood glucose levels with a glucometer. Finally, at the end of the experiment on day 28, all the animals in the administration groups were subjected to 2-5% isoflurane inhalation anesthesia, and 100 μL of EDTA-K2 anticoagulated whole blood was collected through the orbit of each mouse and used for the determination of glycated hemoglobin.

SMILES: CC[C@H](C)[C@H](NC(=O)[C@H](CCCCN)NC(=O)[C@H](CCC(=O)O)NC(=O)[C@H](CCCCNC(=O)COCCOCCNC(=O)COCCOCCNC(=O)CC[C@H](NC(=O)CCCCCCCCCCCCCCCCCCC(=O)O)C(=O)O)NC(=O)[C@H](Cc1ccc(O)cc1)NC(=O)[C@@H](NC(=O)[C@H](CO)NC(=O)[C@H](Cc1ccc(O)cc1)NC(=O)[C@H](CC(=O)O)NC(=O)[C@H](CO)NC(=O)[C@@H](NC(=O)[C@H](Cc1ccccc1)NC(=O)[C@@H](NC(=O)CNC(=O)[C@H](CCC(=O)O)NC(=O)C(C)(C)NC(=O)[C@@H](N)Cc1ccc(O)cc1)[C@@H](C)O)[C@@H](C)O)[C@@H](C)CC)C(=O)N[C@@H](C)C(=O)N[C@@H](C)C(=O)N[C@@H](CCC(N)=O)C(=O)N[C@@H](CCC(=O)O)C(=O)N[C@@H](Cc1ccccc1)C(=O)N[C@H](C(=O)N[C@@H](CC(N)=O)C(=O)N[C@@H](Cc1c[nH]c2ccccc12)C(=O)N[C@@H](CC(C)C)C(=O)N[C@@H](CC(C)C)C(=O)N[C@@H](C)C(=O)NCC(=O)NCC(=O)N1CCC[C@H]1C(=O)N[C@@H](CO)C(=O)N[C@@H](CO)C(=O)NCC(=O)N[C@@H](C)C(=O)N1CCC[C@H]1C(=O)N1CCC[C@H]1C(=O)N1CCC[C@H]1C(=O)N[C@@H](CO)C(N)=O)C(C)C [Compound 18#] (H-Y[Aib]EGTFTSDYSIYK([AEEA-AEEA-γGlu-C20 diacid])EKIAAQEFVNWLLAGGPSSGAPPPS-NH2)
- rate of change in body weight (diet-induced obese mice; 3 nmol/kg sc, day 1 after administration): −5 ± 0.6%
- rate of change in body weight (diet-induced obese mice; 3 nmol/kg sc, day 6 after administration): −10 ± 4.4 %
- rate of change in body weight (diet-induced obese mice; 3 nmol/kg sc, day 7 after administration): −13 ± 5.3 %
- viscera/brain ratio for fat mass, Epididymal fat (diet-induced obese mice; 3 nmol/kg sc): 254.6 ± 113.4 %
- viscera/brain ratio for fat mass, Inguinal fat (diet-induced obese mice; 3 nmol/kg sc): 281.5 ± 140.1 %
- viscera/brain ratio for fat mass, Mesenteric fat (diet-induced obese mice; 3 nmol/kg sc): 84.8 ± 41.3 %
- viscera/brain ratio for fat mass, Perirenal fat (diet-induced obese mice; 3 nmol/kg sc): 159.2 ± 87.6 %
- viscera/brain ratio for fat mass, Scapular fat (diet-induced obese mice; 3 nmol/kg sc): 48 ± 15.3%
- viscera/brain ratio for fat mass, Subcutaneous fat (diet-induced obese mice; 3 nmol/kg sc): 120 ± 62 %
- rate of change in body weight (diet-induced obese mice; 10 nmol/kg sc, day 6 after administration): −15 ± 5.3 %
- rate of change in body weight (diet-induced obese mice; 10 nmol/kg sc, day 24 after administration): −26 ± 7.1 %
- viscera/brain ratio for fat mass, Epididymal fat (diet-induced obese mice; 10 nmol/kg sc): 211.7 ± 80.7 %
- viscera/brain ratio for fat mass, Inguinal fat (diet-induced obese mice; 10 nmol/kg sc): 194.4 ± 86.2 %
- viscera/brain ratio for fat mass, Mesenteric fat (diet-induced obese mice; 10 nmol/kg sc): 53.3 ± 14.6 %
- viscera/brain ratio for fat mass, Perirenal fat (diet-induced obese mice; 10 nmol/kg sc): 109.4 ± 57.1 %
- viscera/brain ratio for fat mass, Scapular fat (diet-induced obese mice; 10 nmol/kg sc): 42.5 ± 17^ %
- viscera/brain ratio for fat mass, Subcutaneous fat (diet-induced obese mice; 10 nmol/kg sc): 122 ± 73.2 %
- rate of change in body weight (diet-induced obese mice; 100 nmol/kg sc, day 20 after administration): −39 ± 6.5 %
- rate of change in body weight (diet-induced obese mice; 100 nmol/kg sc, day 23 after administration): −38 ± 5.9 %
- viscera/brain ratio for fat mass, Epididymal fat (diet-induced obese mice; 100 nmol/kg sc): 102.9 ± 32.2 %
- viscera/brain ratio for fat mass, Inguinal fat (diet-induced obese mice; 100 nmol/kg sc): 92 ± 34.5 %
- viscera/brain ratio for fat mass, Mesenteric fat (diet-induced obese mice; 100 nmol/kg sc): 27.4 ± 11.1 %
- viscera/brain ratio for fat mass, Perirenal fat (diet-induced obese mice; 100 nmol/kg sc): 46.6 ± 18.2 %
- viscera/brain ratio for fat mass, Scapular fat (diet-induced obese mice; 100 nmol/kg sc): 32.3 ± 7%
- viscera/brain ratio for fat mass, Subcutaneous fat (diet-induced obese mice; 100 nmol/kg sc): 57.1 ± 21.2 %
- body weight reduced by (diet-induced obese mice; high-fat food-induced obese mice, 10 nmol/kg, day 27, text): more than 20.0%
- daily food intake ration (DIO mice; 3 nmol/kg sc, day 3 after administration): 2 ± 0.5 g
- cumulative food intake ration (DIO mice; 3 nmol/kg, 28 days after the administration): 58.2 g
- cumulative food intake ration (DIO mice; 3 nmol/kg, within 5 days after the administration): 7.2 g
- daily food intake ration (DIO mice; 10 nmol/kg sc, day 9 after administration): 2 ± 0.6 g
- daily food intake ration (DIO mice; 10 nmol/kg sc, day 15 after administration): 3 ± 0.9 g
- daily food intake ration (DIO mice; 10 nmol/kg sc, day 20 after administration): 2 ± 0.5 g
- cumulative food intake ration (DIO mice; 10 nmol/kg, 28 days after the administration): 46.8 g
- cumulative food intake ration (DIO mice; 10 nmol/kg, within 5 days after the administration): 3.9 g
- daily food intake ration (DIO mice; 100 nmol/kg sc, day 15 after administration): 2 ± 0.4 g
- daily food intake ration (DIO mice; 100 nmol/kg sc, day 18 after administration): 2 ± 0.4 g
- cumulative food intake ration (DIO mice; 100 nmol/kg, 28 days after the administration): 36.7 g
- cumulative food intake ration (DIO mice; 100 nmol/kg, within 5 days after the administration): 1.8 g
- Concentration of fasting blood glucose (db/db mice; 10 nmol/kg sc, Day 0): 14.77 ± 1.30 mmol/L
- Concentration of random blood glucose (db/db mice; 10 nmol/kg sc, Day 0): 20.42 ± 1.56 mmol/L
- Concentration of fasting blood glucose (db/db mice; 10 nmol/kg sc, Day 7): 6.05 ± 0.42 mmol/L
- Concentration of random blood glucose (db/db mice; 10 nmol/kg sc, Day 10): 20.66 ± 1.48 mmol/L
- Concentration of fasting blood glucose (db/db mice; 10 nmol/kg sc, Day 14): 6.30 ± 0.46 mmol/L
- Concentration of random blood glucose (db/db mice; 10 nmol/kg sc, Day 17): 18.91 ± 1.33 mmol/L
- Concentration of fasting blood glucose (db/db mice; 10 nmol/kg sc, Day 21): 7.89 ± 0.81 mmol/L
- Concentration of random blood glucose (db/db mice; 10 nmol/kg sc, Day 24): 21.17 ± 2.07 mmol/L
- Concentration of fasting blood glucose (db/db mice; 10 nmol/kg sc, Day 28): 9.41 ± 0.97 mmol/L
- Glycated hemoglobin (db/db mice; 10 nmol/kg sc, day 28): 4.71 ± 0.23 %
- Concentration of fasting blood glucose (db/db mice; 30 nmol/kg sc, Day 0): 14.13 ± 1.32 mmol/L
- Concentration of random blood glucose (db/db mice; 30 nmol/kg sc, Day 0): 16.73 ± 1.59 mmol/L
- Concentration of fasting blood glucose (db/db mice; 30 nmol/kg sc, Day 7): 6.21 ± 0.26 mmol/L
- Concentration of random blood glucose (db/db mice; 30 nmol/kg sc, Day 10): 15.88 ± 1.86 mmol/L
- Concentration of fasting blood glucose (db/db mice; 30 nmol/kg sc, Day 14): 6.40 ± 0.57 mmol/L
- Concentration of random blood glucose (db/db mice; 30 nmol/kg sc, Day 17): 17.30 ± 1.17 mmol/L
- Concentration of fasting blood glucose (db/db mice; 30 nmol/kg sc, Day 21): 7.03 ± 0.52 mmol/L
- Concentration of random blood glucose (db/db mice; 30 nmol/kg sc, Day 24): 17.43 ± 1.92 mmol/L
- Concentration of fasting blood glucose (db/db mice; 30 nmol/kg sc, Day 28): 9.68 ± 1.03 mmol/L
- Glycated hemoglobin (db/db mice; 30 nmol/kg sc, day 28): 4.53 ± 0.17 %
- Concentration of fasting blood glucose (db/db mice; 100 nmol/kg sc, Day 0): 14.67 ± 1.46 mmol/L
- Concentration of random blood glucose (db/db mice; 100 nmol/kg sc, Day 0): 9.11 ± 1.25 mmol/L
- Concentration of fasting blood glucose (db/db mice; 100 nmol/kg sc, Day 7): 5.85 ± 0.33 mmol/L
- Concentration of random blood glucose (db/db mice; 100 nmol/kg sc, Day 10): 12.34 ± 1.12 mmol/L
- Concentration of fasting blood glucose (db/db mice; 100 nmol/kg sc, Day 14): 6.25 ± 0.32 mmol/L
- Concentration of random blood glucose (db/db mice; 100 nmol/kg sc, Day 17): 11.89 ± 1.15 mmol/L
- Concentration of fasting blood glucose (db/db mice; 100 nmol/kg sc, Day 21): 6.13 ± 0.19 mmol/L
- Concentration of random blood glucose (db/db mice; 100 nmol/kg sc, Day 24): 11.51 ± 0.95 mmol/L
- Concentration of fasting blood glucose (db/db mice; 100 nmol/kg sc, Day 28): 7.89 ± 0.41 mmol/L
- Glycated hemoglobin (db/db mice; 100 nmol/kg sc, day 28, listed as 18 #): 3.78%
- Glycated hemoglobin (db/db mice; 100 nmol/kg sc, day 28, listed as #18): 3.78 ± 0.13 %
